Data on 8 molecules can be found in patent publication US20070238717A1, “Neuroprotection with Beta-Lactam Compounds” (Johns Hopkins University, priority 2003, published 2007).

In one data set the test system is EAAT2. Put plainly: Spinal cord organotypic culture screen for EAAT2 protein expression (slot blot). It counts as cell-based, rat. The note with it: for EAAT2 expression: positive controls, after 3 days in culture. The text has this:
Screening Assay for EAAT2 Protein overexpression. Spinal cord organotypic cultures and astroglial cultures are used to screen for drugs capable of stimulating EAAT2 synthesis and function. Organotypic cultures offer the advantage in that they maintain the normal architecture of neuron-astroglial interactions in vitro and are derived from post natal tissue; thus may better reflect astroglial responses in vivo (rather than embryonic cells). Thus a drug that acts either on an astrocyt—or induces neurons to secrete factors that alert astrocytes—better reflects the “natural” condition of delivering a drug to a whole animal.
Organotypic Spinal Cord. Spinal cord organotypic cultures have been described by us in detail in the past. Rothstein J D et al., N. Engl. J. Med. 1992; 326:1464-1468. Briefly, 300 um sections of rat lumbar spinal cord, from postnatal day 8-10 rat pups, are placed on Millipore Millicell CM semipermeable membranes. Each well contains 5 slices (FIG. 2A). Fifty-100 cultures can be prepared weekly. Each drug (10-100 μM) was added for 3-7 days, along with cell culture medium/serum. Cultures were harvested and 5-50 μg of tissue was applied to slot blot apparatus for detection of EAAT2 by standard Western blotting/chemiluminescence methods described in the past. Kuncl R W et al., Motor neuron diseases. In: Asbury A K et al., editors. Diseases of the Nervous System. 2 ed. Philadelphia: W. B. Saunders, 1992:1179-1208; Rothstein J D et al., Neuron 1994; 13:713-725. All antipeptide antibodies were affinity purified and highly specific for transporter subtypes. By this method, increases greater than 50% of expressed protein can be detected. For each antibody slot blot, the homogenates used are expected to be within the linear range for antibody detection, based on prior standard curves.
Screening Library-Assay Design. The library of compounds for these first studies was the NINDS Custom Collection from Microsource Discovery. The library is composed of 1040 compounds in 96 well plates, that also included positive control for transporter synthesis (dibutyryl cyclic AMP [dbcAMP], GDNF). […] The library is a unique collection of known bioactive compounds that permit the simultaneous evaluation of hundreds of marketed drugs and biochemical standards. Each compound was studied at a final concentration of 10-100 μM. All assays were performed in duplicate. Every blot included control—untreated tissue and a positive control, such as those identified above.
Data Analysis. All blots were analyzed by laser densitometry (BioRad Image Quant) and the duplicate points were averaged. Each blot included a positive control standard (e.g. dbcAMP) and a negative control standard (e.g. serum, DMSO). Data was kept in Excel Spreadsheets, using a numerical/text coding system. All positive drugs (positive defined as at least a 50% increased in protein expression) were re-evaluated.

For data set [1] the following is noted: intravenous, pediatric bacterial meningitis, after 3-4 hours; cited from earlier work.
The conditions of data set [2]: intravenous, antibiotic doses, after 0.5 hours; cited from earlier work.
Data set [3] relates to primary cortical mixed neuronal-glial cell cultures. It is filed as cell-based. As to the method: In Vitro Model of Ischemia—Oxygen glucose deprivation (FIG. 7A) The in vitro model of oxygen glucose deprivation (OGD) is a well known and well accepted model of acute neural injury. In our in vitro model of ischemia, one hour of oxygen glucose deprivation (OGD) is lethal to cultured neurons, with toxicity known to involve excess glutamate. However, when these cultures are preconditioned 24 hours prior to the lethal condition with transient OGD (5 minutes), there is a dramatic and robust resistance of neurons to cell death.
Method. Primary cortical mixed neuronal-glial cell cultures are prepared from gestation day 14-16 CD1 mice. The preparation of these cultures from mouse fetal cortex is well-described. Experiments are performed at days in vitro 13-15. In the experimental condition, cultures are subjected to oxygen glucose deprivation (OGD), an in-vitro model of ischemia. Cortical cells are either subjected to control treatment (media, modified Earle's balanced salt solution including glucose and bubbled with 5% CO2 95% O2, is changed alongside treatment groups, but no OGD is performed), or 5 minutes (sublethal) of OGD (using modified Earle's balanced salt solution which is devoid of glucose and bubbled with 10% H2, 85% N2, and […]). Anaerobic conditions are achieved using an anaerobic chamber at 37° C. OGD is terminated by exchange of media back to oxygenated growing medium. Twenty-four hours following the above, cortical cells are subjected either to no treatment, or one hour of OGD. Neuronal survival is determined by computer-assisted cell counting after staining with the fluorescent vital dyes propidium iodide (as an indicator of neuronal death) and Hoechst 33342 (as an indicator of total number of neurons) and is presented as percent of cell death. Glial nuclei fluoresce at a lower intensity and are gated out. […] Following 1 hour OGD, cells are returned to growing medium without drugs.

In another data set the test system is G93A SOD1 mice. Description: In vivo neuroprotection in the G93A SOD1 mouse. An excerpt:
Numerous studies have documented a contributory role for excess glutamate in this mouse model—and role for modulating glutamate receptors or transporters in neuroprotective strategies. Guo H., et al. Hum Mol. Genet. 2003; 12:2519-2532. Modest over expression—by a transgenic approach—can alter disease onset and/or survival.

The subject of data set [4] is large ventral horn motor neurons in organotypic spinal cord cultures. Put plainly: In vitro model of chronic motor neurodegeneration (THA) in organotypic spinal cord cultures. It counts as cell-based, rat. To be noted: THA 100 μM, 4 weeks, drug 0 to 100 μM, FIG. 7B.
Description: In vitro model of chronic motor neurodegeneration (FIG. 7B). A model of chronic neurodegeneration was used, based on the blockade of glutamate transport in spinal cord organotypic cultures, with the non specific inhibitor threo-hytdroyxaspartate (THA) or TBOA. Chronic incubation of cultures with THA (or TBOA) leads to chronic increase in extra cellular glutamate and subsequent slow death of motor neurons (over 4 weeks).
To determine if drug induced GLT1 promoter activation, and the subsequent over expression of GLT1 protein could be neuroprotective, we used the organotypic spinal cord paradigm. Organotypic spinal cord cultures were prepared from lumbar spinal cords of 8-day-old rat pups, as described previously. […] No drugs were added for the first 7 days following culture preparation. THA was then added to experimental cultures at a concentration of 100 μM, which produces death of motor neurons within 3 to 4 weeks. […] After 4 weeks, cultures were fixed, and immuostained for neurofilament (SMI-32, Sternberger) to quantify large ventral horn motor neurons (a well established method to follow motor neuron survival in this system).
For data set [5], the system named is cultures prepared from GLT-1 null mice. Description: Chronic motor neurodegeneration model in cultures prepared from GLT-1 null mice. It counts as cell-based. To be noted: not shown.
For another data set, the system named is GLT1. Put plainly: GLT1 expression in spinal cords of chronically treated G93A mice. It is filed as in vivo.
Setting [6] is: 200 mg/kg ip from approximately 12 weeks of age.
Setting [7] is: started at 70 days of age, two weeks of therapy, vs saline.

For the molecule `CCC(C)(C)C(=O)C(=O)N1CCC[C@H]1C(=O)OCCCc1cccnc1` [GPI-1046], the EAAT2 expression result in the data set on EAAT2 is given as “large increase”.
For `CO/N=C(\C(=O)N[C@@H]1C(=O)N2C(C(=O)O)=C(CSc3nc(=O)c(=O)[nH]n3C)CS[C@H]12)c1csc(N)n1` [ceftriaxone sodium], the “maximum CSF level in inflamed meninges” value in data set [1] was 1.3 to 44 µg/mL. Moreover, the “maximum average plasma level” value in data set [2] was 82 to 257 µg/mL.
One may read the EC50 as the midpoint of the concentration-response curve. Lower therefore signals an effect from little substance. On to `CO/N=C(\C(=O)N[C@@H]1C(=O)N2C(C(=O)O)=C(CSc3nc(=O)c(=O)[nH]n3C)CS[C@H]12)c1csc(N)n1` [ceftriaxone], for which the “increase of GLT1 protein and function” value in the data set on EAAT2 (concentration used in the THA neuroprotection study) is recorded as “at least 3 fold”. Besides, the EC50 with EAAT2 (follow-up dose response analysis, FIG. 2F) worked out at 3.5 µM. For the same molecule, the “percentage of neuronal cell death” value in data set [3] (1 μM added 48 hours prior to 1 hour OGD, 50% without drug) is on record as 20%. For the same molecule, the “neuroprotection, acute administration” value in data set [3] (acute administration, 1 hour OGD) is on record as “not protective”. Besides, in the data set with G93A SOD1 mice (setting [6]), the “age by which strength preservation was lost” value was at most 18 weeks, the “persistence of strength effect” value was 4 weeks and the “time after treatment at which strength effect was observed” value is reported as at most 7 days. The “loss of muscle strength (grip strength)” value in the data set with G93A SOD1 mice (200 mg/kg ip from approximately 12 weeks of age, FIG. 7C) is on record as “significantly delayed”. In the data set on G93A SOD1 mice (200 mg/kg ip from approximately 12 weeks of age, FIG. 7D), the “increase of over all survival” value lay within 7 to 10 days. Also, the “survival, earlier administration” value in the data set on G93A SOD1 mice (same dose started at 42 days of age) is “survival was also increased”. In the data set with G93A SOD1 mice (setting [7]), the “hypercellular-associated gliosis and inflammation” value is reported as “reduction”; the “motor neuron loss in vivo” value is “significant prevention”. Moreover, in data set [4], the “motor neuron loss / neuroprotection” value is recorded as “prevented motor neurons loss in a dose dependent manner”. Besides, the “neuroprotection in GLT-1 null cultures” value in data set [5] is “cannot be seen”. The “endogenous GLT1 expression in spinal cords” value in the data set on GLT1 is reported as “increase endogenous GLT1 expression significantly”.
Turning to `CO/N=C(\C(=O)N[C@@H]1C(=O)N2C(C(=O)O)=C(COC(N)=O)CS[C@H]12)c1ccco1` [cefuroxime], the “neuroprotection, pretreatment” value in data set [3] (compared with ceftriaxone, 1 hour OGD) is on record as “Comparable neuroprotection”.
As for `CCCC(=O)Nc1ncnc2c1ncn2[C@@H]1O[C@@H]2COP(=O)(O)O[C@H]2[C@H]1OC(=O)CCC` [dbcAMP, dibutyryl cyclic AMP], in the data set on EAAT2, the EAAT2 expression result is recorded as “large increase”.
As to `CN[C@H](CC(C)C)C(=O)N[C@H]1C(=O)N[C@@H](CC(N)=O)C(=O)N[C@H]2C(=O)N[C@H]3C(=O)N[C@H](C(=O)N[C@H](C(=O)O)c4cc(O)cc(O)c4-c4cc3ccc4O)[C@H](O)c3ccc(c(Cl)c3)Oc3cc2cc(c3O[C@@H]2O[C@H](CO)[C@@H](O)[C@H](O)[C@H]2O[C@H]2C[C@](C)(N)[C@H](O)[C@H](C)O2)Oc2ccc(cc2Cl)[C@H]1O` [vancomycin], the GLT1 levels result in the data set on EAAT2 is “did not alter”.
With penicillin, the “active in increasing EAAT2 in the first screen” value with EAAT2 (first screen, 10-100 μM) is “active”.

B1: GDNF: positive control for transporter synthesis (protein, UniProt P39905 78-211, looked up)
Glial cell line-derived …: SPDKQMAVLPRRERNRQAAAANPENSRGKGRRGQRGKNRGCVLTAIHLNVTDLGLGYETKEELIFRYCSGSCDAAETTYDKILKNLSRNRRLVSDKVGQACCRPIAFDDDLSFLDDNLVYHILRKHSAKRCGCI
B1: in the data set on EAAT2, the EAAT2 expression entry was “large increase”.
